Reference: patent US10617680B2 (CELGENE QUANTICEL RESEARCH, INC., priority 2017, dated 2020)
Like-named read-outs stand apart in the source and are kept apart here.

Biological target: CBP (Homo sapiens (Human), UniProt Q92793)
Experiment: In vitro CBP inhibition (AlphaScreen, biotinylated H4-tetraacetyl peptide)
Type: binding
Method in brief: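 His-tagged CBP expressed in E. coli (50 nM final) incubated with biotinylated H4K5/8/12/16(Ac) peptide (20 nM final) in 50 mM HEPES pH 7.3, 10 mM NaCl, 0.25 mM TCEP, 0.1% BSA, 0.005% Brij-35, 0.4% DMSO, 20 min at room temp.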

[1] = AlphaScreen, Table 29, read-out: CBP IC50

Chain of CBP (Q92793 1081-1197): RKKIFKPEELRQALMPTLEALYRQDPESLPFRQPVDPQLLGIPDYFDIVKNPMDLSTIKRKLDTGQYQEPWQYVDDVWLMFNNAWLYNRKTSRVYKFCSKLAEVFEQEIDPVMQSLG

| Compound | IC50 [1] [nM] | further results |
| --- | --- | --- |
| CCCn1cc(-c2cn(C)c(=O)cc2-c2ccccc2)cn1 [Example 139, 1-methyl-4-phenyl-5-(1-propyl-1H-pyrazol-4-yl)pyridin-2(1H)-one] | < 500 | – |
| COc1ccc(C#N)c(-n2cc(-c3cn(C)c(=O)cc3-c3ccc(OC)nc3)cn2)c1 [Example 264, 4-Methoxy-2-[4-(6-methoxy-1′-methyl-6′-oxo-1′,6′-dihydro-[3,4′]bipyridinyl-3′-yl)-pyrazol-1-yl]-benzonitrile] | < 500 | – |
| Cn1cc(-c2cnn(Cc3ccccc3)c2)ccc1=O [Example 1, 5-(1-benzyl-1H-pyrazol-4-yl)-1-methylpyridin-2(1H)-one] | – | IC50: 500 to 5000 nM |
| CN(C)c1ccc(-c2cc(=O)n(C)cc2-c2cnn(-c3cccc(F)c3C#N)c2)cn1 [Example 347, 2-{4-[6-(dimethylamino)-1′-methyl-6′-oxo-1′,6′-dihydro-[3,4′-bipyridine]-3′-yl]-1H-pyrazol-1-yl}-6-fluorobenzonitrile] | < 500 | – |
| CC(C)Nc1ccc(-c2cc(=O)n(C)cc2-c2cnn(-c3cccc(F)c3C#N)c2)cn1 [Example 351, 2-fluoro-6-(4-(6-(isopropylamino)-1′-methyl-6′-oxo-1′,6′-dihydro-[3,4′-bipyridin]-3′-yl)-1H-pyrazol-1-yl)benzonitrile] | < 500 | – |
| CCOc1cc(=O)n(C)cc1-c1cnn(Cc2cccc(C(=O)OC)c2)c1 [Example 71, methyl 3-((4-(4-ethoxy-1-methyl-6-oxo-1,6-dihydropyridin-3-yl)-1H-pyrazol-1-yl)methyl)benzoate] | < 500 | – |
| Cn1cc(-c2cnn(Cc3ccccc3)c2)c(-c2cccnc2)cc1=O [Example 122, 5′-(1-benzyl-1H-pyrazol-4-yl)-1′-methyl-[3,4-bipyridin]-2′(1′H)-one] | < 500 | – |
| CCOc1cc(=O)n(C)cc1-c1cnn(Cc2ccc(-c3cn[nH]c3)cc2)c1 [Example 103, 4-ethoxy-1-methyl-5-{1-[4-(1H-pyrazol-4-yl)-benzyl]-1H-pyrazol-4-yl}-1H-pyridin-2-one] | < 500 | – |
| CCc1ccc(-c2cc(=O)n(C)cc2-c2cnn(-c3ccccc3C#N)c2)cn1 [Example 373, 2-(4-(6-ethyl-1-methyl-6′-oxo-1′,6′-dihydro-[3,4′-bipyridin]-3′-yl)-1H-pyrazol-1-yl)benzonitrile] | < 500 | – |
| COc1cc(-c2cnn(C(C)c3ccccc3)c2)cn(C)c1=O (stereo not shown) [Example 32, 3-methoxy-1-methyl-5-(1-(1-phenylethyl)-1H-pyrazol-4-yl) pyridin-2(1H)-one] | 500 to 5000 | – |
| COc1cc(-c2cc(=O)n(C)cc2-c2cnn(-c3ccccc3C#N)c2)cc(OC)c1OC [Example 246, 2-{4-[1-Methyl-6-oxo-4-(3,4,5-trimethoxy-phenyl)-1,6-dihydro-pyridin-3-yl]-pyrazol-1-yl}-benzonitrile] | 500 to 5000 | – |
| Cn1cc(-c2cnn(-c3ccccc3C#N)c2)c(-c2cccc(Cl)c2)cc1=O [Example 216, 2-{4-[4-(3-Chloro-phenyl)-1-methyl-6-oxo-1,6-dihydro-pyridin-3-yl]-pyrazol-1-yl}-benzonitrile] | < 500 | – |
| Cn1cc(-c2cnn(-c3ccccc3C#N)c2)c(-c2ccc(C(N)=O)cc2)cc1=O [Example 218, 4-{5-[1-(2-Cyano-phenyl)-1H-pyrazol-4-yl]-1-methyl-2-oxo-1,2-dihydro-pyridin-4-yl}-benzamide] | < 500 | – |
| COC(=O)c1ccn(-c2cc(=O)n(C)cc2-c2cnn(Cc3ccccc3)c2)c1 [Example 77, methyl 1-(5-(1-benzyl-1H-pyrazol-4-yl)-1-methyl-2-oxo-1,2-dihydro-pyridin-4-yl)-1H-pyrrole-3-carboxylate] | < 500 | – |
| CCOc1ccc(-c2cc(=O)n(C)cc2-c2cnn(-c3ccccc3C(=O)O)c2)cn1 [Example 230, 2-[4-(6-Ethoxy-1′-methyl-6′-oxo-1′,6′-dihydro-[3,4′]bipyridinyl-3′-yl)-pyrazol-1-yl]-benzoic acid] | < 500 | – |
| Cn1cc(-c2cnn(Cc3ccccc3)c2)c(NCCC(=O)O)cc1=O [Example 201, 3-((5-(1-benzyl-1H-pyrazol-4-yl)-1-methyl-2-oxo-1,2-dihydropyridin-4-yl)amino)propanoic Acid] | < 500 | – |
| CCOc1cc(=O)n(C)cc1-c1cnn(Cc2ccccc2)c1 [Example 64, 5-(1-benzyl-1H-pyrazol-4-yl)-4-ethoxy-1-methylpyridin-2(1H)-one] | < 500 | – |
| CCOc1cc(=O)n(C)cc1-c1cnn2c1CN(S(C)(=O)=O)CC2 [Example 392, 4-Ethoxy-5-(5-methanesulfonyl-4,5,6,7-tetrahydro-pyrazolo[1,5-a]pyrazin-3-yl)-1-methyl-1H-pyridin-2-one] | < 500 | – |
| CCOc1cc(=O)n(C)cc1-c1cnn(-c2ccccc2S(C)(=O)=O)c1 [Example 180, 4-Ethoxy-5-[1-(2-methanesulfonyl-phenyl)-1H-pyrazol-4-yl]-1-methyl-1H-pyridin-2-one] | < 500 | – |
| CNNc1cc(=O)n(C)cc1-c1cnn(Cc2ccccc2)c1 [Example 99, 5-(1-benzyl-1H-pyrazol-4-yl)-1-methyl-4-(2-methyl-hydrazinyl)-pyridin-2(1H)-one] | 500 to 5000 | – |
| Cn1cc(-c2cnn(Cc3ccccc3)c2)c(-c2ccc(C(=O)O)cc2)cc1=O [Example 155, 4-(5-(1-benzyl-1H-pyrazol-4-yl)-1-methyl-2-oxo-1,2-dihydropyridin-4-yl)benzoic acid] | < 500 | – |
| Cn1cc(-c2cnn(Cc3ccccc3)c2)c(-c2cnn(C(F)F)c2)cc1=O [Example 160, 5-(1-benzyl-1H-pyrazol-4-yl)-4-(1-(difluoromethyl)-1H-pyrazol-4-yl)-1-methylpyridin-2(1H)-one] | < 500 | – |
| CC(c1cccc(C#N)c1)n1cc(-c2ccc(=O)n(C)c2)cn1 (stereo not shown) [Example 16, 3-(1-(4-(1-methyl-6-oxo-1,6-dihydropyridin-3-yl)-1H-pyrazol-1-yl)ethyl)benzonitrile] | 500 to 5000 | – |
| COc1ccc(C#N)c(-n2cc(-c3cn(C)c(=O)cc3-c3ccccc3)cn2)c1 [Example 261, 4-Methoxy-2-[4-(1-methyl-6-oxo-4-phenyl-1,6-dihydro-pyridin-3-yl)-pyrazol-1-yl]-benzonitrile] | < 500 | – |
| CCc1ncc(-c2cc(=O)n(C)cc2-c2cnn(-c3cccc(Cl)c3C#N)c2)cn1 [Example 280, 2-chloro-6-(4-(4-(2-ethylpyrimidin-5-yl)-1-methyl-6-oxo-1,6-dihydropyridin-3-yl)-1H-pyrazol-1-yl)benzonitrile] | < 500 | – |
| Cn1cc(-c2cnn(-c3cccc(Cl)c3C#N)c2)c(-c2cnc(N3CCCC3)nc2)cc1=O [Example 330, 2-chloro-6-(4-(1-methyl-6-oxo-4-(2-(pyrrolidin-1-yl)pyrimidin-5-yl)-1,6-dihydropyridin-3-yl)-1H-pyrazol-1-yl)benzonitrile] | < 500 | – |
| Cn1cc(-c2cnn(Cc3ccccc3)c2)c(-n2cccc2)cc1=O [5-(1-benzyl-1H-pyrazol-4-yl)-1-methyl-4-(1H-pyrrol-1-yl)pyridin-2(1H)-one] | – | IC50 for CBP compared with BRD4 (selectivity) (CBP versus BRD4): lower IC50 for CBP than for BRD4 |
| Cn1cc(-c2cc(=O)n(C)cc2-c2cnn(CC3CC3(F)F)c2)cn1 (stereo not shown) [Example 192, 5-[1-(2,2-Difluoro-cyclopropylmethyl)-1H-pyrazol-4-yl]-1-methyl-4-(1-methyl-1H-pyrazol-4-yl)-1H-pyridin-2-one] | < 500 | – |
